Results published in patent publication US20160324992A1, “IDENTIFICATION AND TREATMENT OF VULNERABLE PLAQUES” (OTTAWA HEART INSTITUTE RESEARCH CORPORATION, priority 2015, published 2016).

Test system: bone-marrow-derived macrophages (BMDMs)
Format: cell-based
Method: (§1) Bone-marrow derived macrophages. Bone-marrow derived macrophages (BMDMs) were isolated from femurs of adult VVT or Rip3^−/− mice and differentiated into macrophages using DMEM supplemented with 10% FBS and 1% penicillin-streptomycin plus either 20% L929 conditioned media or 20 ng/mL mouse M-CSF for 7-10 days. To polarize macrophages to M1 or M2, BMDMs were incubated on day 7 with 1 μg/mL LPS and 100 ng/mL IFNγ or 10 ng/mL IL-4 respectively for 24 h. Damage Associated Molecular Patterns (DAMPs) were obtained by subjecting BMDMs to 3×30 min freeze-thaw cycle or treatment with 100 ng/mL LPS and 50 μM zVAD.fmk for 24 hours, after which the media was collected and added to naïve cells at indicated ratios.
(§2) Cell viability assays. Cell death was determined by measuring lactate dehydrogenase (LDH) release into the media. Briefly, cells were treated with 100 μg/ml oxLDL in the presence or absence of 25 μM zVAD.fmk or 50 μM necrostatin-1 (Nec-1) for 24 hours and media was collected and centrifuged to pellet cell debris. The amount of LDH in media was measured in a kinetic assay by adding PBS containing 0.02% NADH and 0.03% sodium pyruvate and measuring absorbance at 340 nm for 10 minutes at 1 minute intervals. The slope of the curve provides a measure of cell death, which was expressed as fold change relative to control.
as §1, with “Rip3−/−” for “Rip3^−/−”
as §2, with “ug/ml” for “μg/ml”, “uM” for “μM”

CN1C(=O)C(Cc2c[nH]c3ccccc23)NC1=S (stereo not shown) [Nec-1, necrostatin-1]
cell death with compound alone (in words): did not promote cell death
cell death (LDH release), fold change relative to control (BMDMs, 100 μg/mL oxLDL + 50 μM Nec-1, 24 h, oxLDL alone 3.9±0.6-fold, mean±SEM): 2.3±0.4 fold
inhibition of oxLDL+zVAD.fmk-induced cell death (in words) (BMDMs, oxLDL + zVAD.fmk + Nec-1, 24 h): similarly inhibited
inhibition of oxLDL-induced cell death (in words) (M2-polarized macrophages, oxLDL 24 h): similarly inhibited
